Measurements from ChEMBL document CHEMBL3596094, “Nucleoside Diphosphate Prodrugs: Nonsymmetric DiPPro-Nucleotides” (J Med Chem, 2015).

Experiments:
[1] = Half life in pH 7.3 PBS incubated at 37 degC by RP-18-HPLC method; type: physicochemical
[2] = Half life in human CEM/0 cell extracts incubated at 37 degC by RP-18-HPLC method; type: ADME, CCRF-CEM
[3] = tested on: Human immunodeficiency virus 1; test: Antiviral activity against HIV1 3B infected in human CEM/0 cells assessed as reduction in virus-induced giant cell formation incubated for 4 to 5 days; type: functional, organism-based; conditions: Human immunodeficiency virus 1, 3B, CCRF-CEM
[4] = tested on: Human immunodeficiency virus 2; test: Antiviral activity against HIV2 ROD infected in human CEM/0 cells assessed as reduction in virus-induced giant cell formation incubated for 4 to 5 days; type: functional, organism-based; conditions: Human immunodeficiency virus 2, ISOLATE ROD, CCRF-CEM
[5] = tested on: Human immunodeficiency virus 2; test: Antiviral activity against HIV2 ROD infected in human thymidine kinase deficient CEM/TK- cells assessed as reduction in virus-induced giant cell formation incubated for 4 to 5 days; type: functional, organism-based; conditions: Human immunodeficiency virus 2, ISOLATE ROD
[6] = Cytotoxicity against human CEM/0 cells assessed as reduction in cell proliferation incubated for 4 to 5 days
[7] = Half life in presence of pig liver esterase assessed as half life for DiPPro-NDP by RP-18-HPLC method; type: ADME
[8] = Half life in pH 7.3 RPMI medium incubated at 37 degC by RP-18-HPLC method; type: physicochemical
[9] = Drug metabolism in human CEM/0 cell extracts assessed as increase in NDP/NMP ratio after 10 hrs by HILIC-HPLC method; type: ADME; conditions: ccrf-cem
[10] = Half life in presence of pig liver esterase assessed as half life for hydrolysis R1 intermediate by RP-18-HPLC method; type: ADME; conditions: isolated protein
[11] = Drug metabolism in human CEM/0 cell extracts assessed as increase in NDP/NMP ratio by HILIC-HPLC method; type: ADME, cell-based; conditions: ccrf-cem

Row | half-life [1] [h] | half-life [2] [h] | EC50 [3] [nM] | EC50 [4] [nM] | EC50 [5] [nM] | half-life [7] [s] | half-life [8] [h] | Drug metabolism [9] | t1/2 [10] [h] | SMILES | CC50 ([6]; CEM/0 cells) [nM] | Drug metabolism [11] | CC50 ([6]; ccrf-cem) [nM]
1 | 36 | 0.04 | 330 | 1050 | 6310 |  |  |  |  | CCCCCCCC(=O)Oc1ccc(COP(=O)(OCc2ccc(OC(C)=O)cc2)OP(=O)(O)OC[C@@H]2C=C[C@H](n3cc(C)c(=O)[nH]c3=O)O2)cc1.N (some centres undefined) | 33000 |  | 
2 | 40 | 0.04 | 330 | 1360 | 2320 | 8.4 |  |  |  | CCCCCCCCCC(=O)Oc1ccc(COP(=O)(OCc2ccc(OC(C)=O)cc2)OP(=O)(O)OC[C@@H]2C=C[C@H](n3cc(C)c(=O)[nH]c3=O)O2)cc1.N (some centres undefined) | 15000 |  | 
3 | 48 | 0.16 | 290 | 280 | 1770 |  |  |  |  | CCCCCCCCCCCC(=O)Oc1ccc(COP(=O)(OCc2ccc(OC(C)=O)cc2)OP(=O)(O)OC[C@@H]2C=C[C@H](n3cc(C)c(=O)[nH]c3=O)O2)cc1.N (some centres undefined) | 26000 |  | 
4 | 36 | 0.71 | 330 | 1470 | 6310 |  |  |  |  | CCCCCCCC(=O)Oc1ccc(COP(=O)(OCc2ccc(OC(=O)CCCC)cc2)OP(=O)(O)OC[C@@H]2C=C[C@H](n3cc(C)c(=O)[nH]c3=O)O2)cc1.N (some centres undefined) | 66000 |  | 
5 | 40 | 1.05 | 360 | 1170 | 830 | 15.6 |  |  |  | CCCCCCCCCC(=O)Oc1ccc(COP(=O)(OCc2ccc(OC(=O)CCCC)cc2)OP(=O)(O)OC[C@@H]2C=C[C@H](n3cc(C)c(=O)[nH]c3=O)O2)cc1.N (some centres undefined) | 20000 |  | 
6 |  | 1.65 |  |  |  |  |  |  |  | CCCCCCCC(=O)Oc1ccc(COP(=O)(O)OP(=O)(O)OC[C@@H]2C=C[C@H](n3cc(C)c(=O)[nH]c3=O)O2)cc1 |  |  | 
7 |  | 0.833 |  |  |  |  |  |  |  | CCCCCCCCCC(=O)Oc1ccc(COP(=O)(O)OP(=O)(O)OC[C@@H]2C=C[C@H](n3cc(C)c(=O)[nH]c3=O)O2)cc1 |  |  | 
8 |  | 1.15 |  |  |  |  |  |  |  | CCCCCCCCCCCC(=O)Oc1ccc(COP(=O)(O)OP(=O)(O)OC[C@@H]2C=C[C@H](n3cc(C)c(=O)[nH]c3=O)O2)cc1 |  |  | 
9 |  | 11.5 |  |  |  |  |  |  |  | Cc1cn([C@H]2C=C[C@@H](COP(=O)(O)OP(=O)(O)OCc3ccc(OC(=O)c4ccc(C(F)(F)F)cc4)cc3)O2)c(=O)[nH]c1=O |  |  | 
10 |  | 14.5 |  |  |  |  |  |  |  | Cc1ccc(C(=O)Oc2ccc(COP(=O)(O)OP(=O)(O)OC[C@@H]3C=C[C@H](n4cc(C)c(=O)[nH]c4=O)O3)cc2)cc1 |  |  | 
11 |  | 1.65 |  |  |  |  |  |  |  | CCCCCCCC(=O)Oc1ccc(COP(=O)(O)OP(=O)(O)OC[C@H]2O[C@@H](n3cc(C)c(=O)[nH]c3=O)C[C@@H]2N=[N+]=[N-])cc1 |  |  | 
12 |  | 0.833 |  |  |  |  |  |  |  | CCCCCCCCCC(=O)Oc1ccc(COP(=O)(O)OP(=O)(O)OC[C@H]2O[C@@H](n3cc(C)c(=O)[nH]c3=O)C[C@@H]2N=[N+]=[N-])cc1 |  |  | 
13 |  | 1.05 |  |  |  |  |  |  |  | CCCCCCCCCCCC(=O)Oc1ccc(COP(=O)(O)OP(=O)(O)OC[C@H]2O[C@@H](n3cc(C)c(=O)[nH]c3=O)C[C@@H]2N=[N+]=[N-])cc1 |  |  | 

More lines, now with the values behind:

Row | SMILES | half-life [1] [h] | half-life [2] [h] | EC50 [3] [nM] | EC50 [4] [nM] | EC50 [5] [nM] | half-life [7] [s] | half-life [8] [h] | Drug metabolism [9] | t1/2 [10] [h] | CC50 ([6]; CEM/0 cells) [nM] | Drug metabolism [11] | CC50 ([6]; ccrf-cem) [nM]
14 | CC(=O)Oc1ccc(COP(=O)(OCc2ccc(OC(=O)c3ccc(C(F)(F)F)cc3)cc2)OP(=O)(O)OC[C@@H]2C=C[C@H](n3cc(C)c(=O)[nH]c3=O)O2)cc1.N (some centres undefined) | 15 | 0.03 | 720 | 1380 | > 10000 |  |  |  |  | 51000 |  | 
15 | CC(=O)Oc1ccc(COP(=O)(OCc2ccc(OC(=O)c3ccc(C)cc3)cc2)OP(=O)(O)OC[C@@H]2C=C[C@H](n3cc(C)c(=O)[nH]c3=O)O2)cc1.N (some centres undefined) | 58 | 0.04 | 290 | 1470 | 10000 |  |  |  |  | 11000 |  | 
16 | CCCCCCCCCCCC(=O)Oc1ccc(COP(=O)(OCc2ccc(OC(=O)CCCC)cc2)OP(=O)(O)OC[C@@H]2C=C[C@H](n3cc(C)c(=O)[nH]c3=O)O2)cc1.N (some centres undefined) | 52 | 1.91 | 100 | 280 | 130 |  |  |  |  | 30000 |  | 
17 | CCCCC(=O)Oc1ccc(COP(=O)(OCc2ccc(OC(=O)c3ccc(C(F)(F)F)cc3)cc2)OP(=O)(O)OC[C@@H]2C=C[C@H](n3cc(C)c(=O)[nH]c3=O)O2)cc1.N (some centres undefined) | 15 | 0.88 | 400 | 720 | > 10000 |  |  |  |  | 37000 |  | 
18 | CCCCC(=O)Oc1ccc(COP(=O)(OCc2ccc(OC(=O)c3ccc(C)cc3)cc2)OP(=O)(O)OC[C@@H]2C=C[C@H](n3cc(C)c(=O)[nH]c3=O)O2)cc1.N (some centres undefined) | 50 | 0.96 | 300 | 1450 | 10000 |  |  |  |  | 14000 |  | 
19 | CCCCCCCC(=O)Oc1ccc(COP(=O)(OCc2ccc(OC(C)=O)cc2)OP(=O)(O)OC[C@H]2O[C@@H](n3cc(C)c(=O)[nH]c3=O)C[C@@H]2N=[N+]=[N-])cc1.N (some centres undefined) | 33 | 0.02 | 42 | 160 | > 10000 | 12.6 |  |  |  | 29000 |  | 
20 | CCCCCCCCCC(=O)Oc1ccc(COP(=O)(OCc2ccc(OC(C)=O)cc2)OP(=O)(O)OC[C@H]2O[C@@H](n3cc(C)c(=O)[nH]c3=O)C[C@@H]2N=[N+]=[N-])cc1.N (some centres undefined) | 35 | 0.04 | 16 | 140 | > 10000 | 27 | 19 | metabolite_detected |  | 20000 |  | 
21 | CCCCCCCCCCCC(=O)Oc1ccc(COP(=O)(OCc2ccc(OC(C)=O)cc2)OP(=O)(O)OC[C@H]2O[C@@H](n3cc(C)c(=O)[nH]c3=O)C[C@@H]2N=[N+]=[N-])cc1.N (some centres undefined) | 32 | 0.11 | 42 | 80 | 10000 | 11.4 |  |  | 0.467 | 18000 |  | 
22 | CC(=O)Oc1ccc(COP(=O)(OCc2ccc(OC(=O)c3ccc(C(F)(F)F)cc3)cc2)OP(=O)(O)OC[C@H]2O[C@@H](n3cc(C)c(=O)[nH]c3=O)C[C@@H]2N=[N+]=[N-])cc1.N (some centres undefined) | 13 | 0.04 | 12 | 60 | > 10000 |  |  |  |  | 100000 |  | 
23 | CCCCCCCC(=O)Oc1ccc(COP(=O)(OCc2ccc(OC(=O)CCCC)cc2)OP(=O)(O)OC[C@H]2O[C@@H](n3cc(C)c(=O)[nH]c3=O)C[C@@H]2N=[N+]=[N-])cc1.N (some centres undefined) | 46 | 0.83 | 36 | 70 | > 10000 | 16.2 |  |  | 0.25 | 73000 |  | 
24 | CCCCCCCCCC(=O)Oc1ccc(COP(=O)(OCc2ccc(OC(=O)CCCC)cc2)OP(=O)(O)OC[C@H]2O[C@@H](n3cc(C)c(=O)[nH]c3=O)C[C@@H]2N=[N+]=[N-])cc1.N (some centres undefined) | 50 | 1 | 34 | 290 | 10000 | 16.2 | 77 |  | 0.317 | 41000 |  | 
25 | CCCCCCCCCCCC(=O)Oc1ccc(COP(=O)(OCc2ccc(OC(=O)CCCC)cc2)OP(=O)(O)OC[C@H]2O[C@@H](n3cc(C)c(=O)[nH]c3=O)C[C@@H]2N=[N+]=[N-])cc1.N (some centres undefined) | 63 | 1.65 | 13 | 60 | 8160 | 72 |  |  | 0.633 | 36000 |  | 
26 | CCCCC(=O)Oc1ccc(COP(=O)(OCc2ccc(OC(=O)c3ccc(C(F)(F)F)cc3)cc2)OP(=O)(O)OC[C@H]2O[C@@H](n3cc(C)c(=O)[nH]c3=O)C[C@@H]2N=[N+]=[N-])cc1.N (some centres undefined) | 19 | 0.83 | 36 | 60 | > 10000 |  |  |  |  | 58000 |  | 
27 | CCCCC(=O)Oc1ccc(COP(=O)(OCc2ccc(OC(=O)CCCC)cc2)OP(=O)(O)OC[C@H]2O[C@@H](n3cc(C)c(=O)[nH]c3=O)C[C@@H]2N=[N+]=[N-])cc1.N |  |  | 11 | 54 | > 10000 |  |  |  |  | 60000 | metabolite_detected | 
28 | CCCCCCC(=O)Oc1ccc(COP(=O)(OCc2ccc(OC(=O)CCCCCC)cc2)OP(=O)(O)OC[C@H]2O[C@@H](n3cc(C)c(=O)[nH]c3=O)C[C@@H]2N=[N+]=[N-])cc1.N |  |  | 16 | 58 | > 10000 |  |  |  |  | 47000 | metabolite_detected | 
29 | CCCCCCCCCC(=O)Oc1ccc(COP(=O)(OCc2ccc(OC(=O)CCCCCCCCC)cc2)OP(=O)(O)OC[C@H]2O[C@@H](n3cc(C)c(=O)[nH]c3=O)C[C@@H]2N=[N+]=[N-])cc1 |  |  | 26 | 230 | 1300 |  |  |  |  | 38000 |  | 
30 | Cc1cn([C@H]2C[C@H](N=[N+]=[N-])[C@@H](COP(=O)(O)OP(=O)(O)OCc3ccc(OC(=O)c4ccc(C(F)(F)F)cc4)cc3)O2)c(=O)[nH]c1=O |  | 3.83 |  |  |  |  |  |  |  |  |  | 
31 | Cc1cn([C@H]2C=C[C@@H](CO)O2)c(=O)[nH]c1=O [STAVUDINE] |  |  | 520 | 2230 | 150000 |  |  |  |  |  |  | 79000
32 | Cc1cn([C@H]2C[C@H](N=[N+]=[N-])[C@@H](CO)O2)c(=O)[nH]c1=O [ZIDOVUDINE] |  |  | 44 | 490 | > 250000 |  |  |  |  | > 250000 |  | 
